Measurements taken from patent publication US20060035942A1, “Fungicidal combinations of active substances” (priority 2002, published 2006).

Tested on: Pyrenophora teres
Test: Pyrenophora teres test (barley)/curative
Assay type: in vivo
Details: curative, application rate 100 g/ha, evaluation 7 days after inoculation
Method: Pyrenophora teres Test (Barley)/Curative • Solvent: 25 parts by weight of N,N-dimethylacetamide • Emulsifier: 0.6 part by weight of alkylaryl polyglycol ether To produce a suitable preparation of active compound, 1 part by weight of active compound is mixed with the stated amounts of solvent and emulsifier, and the concentrate is diluted with water to the desired concentration. To test for curative activity, young plants are sprayed with a conidia suspension of Pyrenophora teres. The plants remain in an incubation cabin at 20° C. and 100% relative atmospheric humidity for 48 hours. The plants are then sprayed with the preparation of active compound at the stated application rate. The plants are placed in a greenhouse at a temperature of about 20° C. and a relative atmospheric humidity of about 80%. Evaluation is carried out 7 days after the inoculation. 0% means an efficacy which corresponds to that of the control, whereas an efficacy of 100% means that no infection is observed.

Which Efficacy in % does the source give for `CON=C(C(=O)OC)c1ccccc1CO/N=C(\C)c1cccc(C(F)(F)F)c1` [Ex. (I)] here?
The Efficacy in % was 67%.

`OC(Cc1ccccc1Cl)(Cn1nc[nH]c1=S)C1(Cl)CC1` (stereo not drawn) [Ex. (II)] was tested. Which Efficacy in % did it give?
The Efficacy in % was 56%.

For `CC(C)(C)C(O)(CCc1ccc(Cl)cc1)Cn1cncn1` (stereo not drawn) [Ex. (III)], which Efficacy in % is on record?
The Efficacy in % was 22%.
